Test results from PubChem BioAssay (NCI).
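1) Cells in 96-well plates. 2) Compound, 48 h, 5 concentrations. 3) Linear interpolation between surrounding doses. 4) Unreached endpoint = highest concentration. Here, GI50 denotes the concentration required for 50% inhibition of growth. The concentration for full growth arrest is given as TGI.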

Assays:
Assay in all cases: growth of human tumour cells (NCI), 48 h
[1] = test system: HCT-116 colon
[2] = test system: UACC-62 melanoma
[3] = test system: U251 CNS
[4] = test system: OVCAR-3 ovarian
[5] = test system: A498 renal
[6] = test system: T-47D breast
[7] = test system: SNB-19 CNS
[8] = test system: MDA-MB-435
[9] = test system: SF-295 CNS
[10] = test system: SW-620 colon
[11] = test system: OVCAR-4 ovarian
[12] = test system: MALME-3M melanoma
[13] = test system: RPMI-8226 leukemia
[14] = test system: COLO 205 colon
[15] = test system: NCI-H23 lung
[16] = test system: ACHN renal
[17] = test system: CAKI-1 renal
[18] = test system: OVCAR-8 ovarian
[19] = test system: SK-MEL-28 melanoma
[20] = test system: MCF7 breast
[21] = test system: SK-MEL-5 melanoma
[22] = test system: SK-MEL-2 melanoma
[23] = test system: NCI-H226 lung
[24] = test system: HOP-92 NSCLC
[25] = test system: HCT-15 colon
[26] = test system: MOLT-4 leukemia
[27] = test system: SN12C renal
[28] = test system: TK-10 renal
[29] = test system: SF-268 CNS
[30] = test system: UO-31 renal
[31] = test system: PC-3 prostate
[32] = test system: A549 NSCLC
[33] = test system: IGROV1 ovarian
[34] = test system: MDA-MB-231 breast
[35] = test system: SK-OV-3 ovarian
[36] = test system: RXF 393 renal
[37] = test system: HOP-62 NSCLC
[38] = test system: UACC-257 melanoma
[39] = test system: SF-539 CNS
[40] = test system: KM12 colon
[41] = test system: K-562 leukemia
[42] = test system: LOX IMVI melanoma
[43] = test system: SNB-75 CNS
[44] = test system: BT-549 breast
[45] = test system: HCC-2998 colon
[46] = test system: HT29 colon
[47] = test system: CCRF-CEM leukemia
[48] = test system: NCI-H460 lung
[49] = test system: 786-0 renal
[50] = test system: NCI/ADR-RES ovarian
[51] = test system: DU-145 prostate
[52] = test system: HL-60(TB) leukemia
[53] = test system: HS 578T breast
[54] = test system: M14 melanoma
[55] = test system: NCI-H522 lung
[56] = test system: EKVX NSCLC
[57] = test system: OVCAR-5 ovarian
[58] = test system: MDA-N
[59] = test system: SR leukemia

In the case of `C=CC(=O)Nc1ccc(Nc2nccc(-c3ccc(N4CCCC4)c(C#N)c3)n2)cc1`, the GI50 [1] is reported as 6.03 µM, the TGI [1] is reported as over 25 µM and the GI50 [2] is reported as over 25 µM. The TGI [2] was over 25 µM, the GI50 [3] was 15.4 µM and the TGI [3] was over 25 µM. For the same molecule, the GI50 [4] was over 25 µM, the TGI [4] was over 25 µM and the GI50 [5] was 4.82 µM. For the same molecule, the TGI [5] was 24.9 µM, the GI50 [6] was over 25 µM and the TGI [6] was over 25 µM. For the same molecule, the GI50 [7] was over 25 µM, the TGI [7] was over 25 µM and the GI50 [8] was 7.09 µM. The TGI [8] was over 25 µM, the GI50 [9] was 9.44 µM and the TGI [9] was over 25 µM. It also gave a GI50 [10] of 21.7 µM, a TGI [10] of over 25 µM and a GI50 [11] of 20.1 µM. For the same molecule, the TGI [11] was over 25 µM, the GI50 [12] was 5.06 µM and the TGI [12] was 20 µM. The GI50 [13] was 10.1 µM, the TGI [13] was over 25 µM and the GI50 [14] was over 25 µM. The TGI [14] was over 25 µM, the GI50 [15] was over 25 µM and the TGI [15] was over 25 µM. The GI50 [16] was 2.45 µM, the TGI [16] was over 25 µM and the GI50 [17] was 4.6 µM. The TGI [17] was over 25 µM, the GI50 [18] was over 25 µM and the TGI [18] was over 25 µM. The GI50 [19] was 4 µM, the TGI [19] was 13.1 µM and the GI50 [20] was 9.55 µM. It also gave a TGI [20] of over 25 µM, a GI50 [21] of 17.9 µM and a TGI [21] of over 25 µM. The GI50 [22] was 22.7 µM, the TGI [22] was over 25 µM and the GI50 [23] was over 25 µM. The TGI [23] was over 25 µM, the GI50 [24] was over 25 µM and the TGI [24] was over 25 µM. It also gave a GI50 [25] of 1.17 µM, a TGI [25] of 10.3 µM and a GI50 [26] of 7.43 µM. For the same molecule, the TGI [26] was over 25 µM, the GI50 [27] was 15.8 µM and the TGI [27] was over 25 µM. For the same molecule, the GI50 [28] was 10.5 µM, the TGI [28] was over 25 µM and the GI50 [29] was 15.8 µM. For the same molecule, the TGI [29] was over 25 µM, the GI50 [30] was 1.06 µM and the TGI [30] was over 25 µM. For the same molecule, the GI50 [31] was 20.9 µM, the TGI [31] was over 25 µM and the GI50 [32] was 11 µM. It also gave a TGI [32] of over 25 µM, a GI50 [33] of 1.85 µM and a TGI [33] of over 25 µM. It also gave a GI50 [34] of over 25 µM, a TGI [34] of over 25 µM and a GI50 [35] of over 25 µM. It also gave a TGI [35] of over 25 µM, a GI50 [36] of 0.545 µM and a TGI [36] of 1.71 µM. For the same molecule, the GI50 [37] was 10.9 µM, the TGI [37] was over 25 µM and the GI50 [38] was 5.37 µM. It also gave a TGI [38] of 17 µM, a GI50 [39] of 6.88 µM and a TGI [39] of over 25 µM. It also gave a GI50 [40] of over 25 µM, a TGI [40] of over 25 µM and a GI50 [41] of 5.94 µM. The TGI [41] was over 25 µM, the GI50 [42] was over 25 µM and the TGI [42] was over 25 µM. The GI50 [43] was 3.37 µM, the TGI [43] was over 25 µM and the GI50 [44] was over 25 µM. For the same molecule, the TGI [44] was over 25 µM, the GI50 [45] was over 25 µM and the TGI [45] was over 25 µM. It also gave a GI50 [46] of over 25 µM, a TGI [46] of over 25 µM and a GI50 [47] of 13.8 µM. The TGI [47] was over 25 µM, the GI50 [48] was 4.61 µM and the TGI [48] was over 25 µM. For the same molecule, the GI50 [49] was 0.663 µM, the TGI [49] was 3.87 µM and the GI50 [50] was over 25 µM. For the same molecule, the TGI [50] was over 25 µM, the GI50 [51] was 14.1 µM and the TGI [51] was over 25 µM. For the same molecule, the GI50 [52] was 4.88 µM, the TGI [52] was over 25 µM and the GI50 [53] was 5.15 µM. For the same molecule, the TGI [53] was over 25 µM, the GI50 [54] was 22.8 µM and the TGI [54] was over 25 µM. For the same molecule, the GI50 [55] was 9.97 µM, the TGI [55] was over 25 µM and the GI50 [56] was over 25 µM. It also gave a TGI [56] of over 25 µM, a GI50 [57] of over 25 µM and a TGI [57] of over 25 µM.
`Nc1nc(N)c2ncn(CC3CCC(CO)C3)c2n1` (stereo not drawn) showed a TGI [1] of over 100 µM, a TGI [2] of over 100 µM and a TGI [3] of over 100 µM. For the same molecule, the TGI [4] was over 100 µM, the TGI [5] was over 100 µM and the TGI [6] was over 100 µM. The TGI [7] was over 100 µM, the TGI [8] was over 100 µM and the TGI [9] was over 100 µM. For the same molecule, the TGI [10] was over 100 µM, the TGI [11] was over 100 µM and the TGI [13] was over 100 µM. It also gave a TGI [14] of over 100 µM, a TGI [16] of over 100 µM and a TGI [17] of over 100 µM. For the same molecule, the TGI [19] was over 100 µM, the TGI [20] was over 100 µM and the TGI [21] was over 100 µM. For the same molecule, the TGI [22] was over 100 µM, the TGI [23] was over 100 µM and the TGI [24] was over 100 µM. For the same molecule, the TGI [25] was over 100 µM, the TGI [26] was over 100 µM and the TGI [27] was over 100 µM. The TGI [28] was over 100 µM, the TGI [29] was over 100 µM and the TGI [30] was over 100 µM. It also gave a TGI [31] of over 100 µM, a TGI [32] of over 100 µM and a TGI [34] of over 100 µM. For the same molecule, the TGI [35] was over 100 µM, the TGI [36] was over 100 µM and the TGI [37] was over 100 µM. For the same molecule, the TGI [38] was over 100 µM, the TGI [39] was over 100 µM and the TGI [40] was over 100 µM. It also gave a TGI [41] of over 100 µM, a TGI [42] of over 100 µM and a TGI [43] of over 100 µM. The TGI [45] was over 100 µM, the TGI [47] was over 100 µM and the TGI [58] was over 100 µM. The TGI [49] was over 100 µM, the TGI [50] was over 100 µM and the TGI [51] was over 100 µM. For the same molecule, the TGI [53] was over 100 µM, the TGI [54] was over 100 µM and the TGI [56] was over 100 µM. For the same molecule, the TGI [57] was over 100 µM.
For `COC(=O)N1CC2(CO)C3CC=C(C(=O)Nc4ccccc4Br)C2C1C3Br` (stereo not drawn), the TGI [2] was over 50 µM, the TGI [3] was over 50 µM and the TGI [4] was over 50 µM. The TGI [5] was over 50 µM, the TGI [6] was over 50 µM and the TGI [7] was over 50 µM. The TGI [8] was over 50 µM, the TGI [59] was over 50 µM and the TGI [9] was over 50 µM. It also gave a TGI [10] of over 50 µM, a TGI [11] of over 50 µM and a TGI [12] of over 50 µM. For the same molecule, the TGI [13] was over 50 µM, the TGI [14] was over 50 µM and the TGI [15] was over 50 µM. The TGI [16] was over 50 µM, the TGI [17] was over 50 µM and the TGI [18] was over 50 µM. The TGI [19] was over 50 µM, the TGI [20] was over 50 µM and the TGI [21] was over 50 µM. For the same molecule, the TGI [22] was over 50 µM, the TGI [23] was over 50 µM and the TGI [24] was over 50 µM. It also gave a TGI [25] of over 50 µM, a TGI [26] of over 50 µM and a TGI [28] of over 50 µM. For the same molecule, the TGI [29] was over 50 µM, the TGI [30] was over 50 µM and the TGI [31] was over 50 µM. It also gave a TGI [32] of over 50 µM, a TGI [33] of over 50 µM and a TGI [34] of over 50 µM. The TGI [35] was over 50 µM, the TGI [36] was over 50 µM and the TGI [37] was over 50 µM. For the same molecule, the TGI [38] was over 50 µM, the TGI [39] was over 50 µM and the TGI [40] was over 50 µM. For the same molecule, the TGI [41] was over 50 µM, the TGI [42] was over 50 µM and the TGI [43] was over 50 µM. The TGI [45] was over 50 µM, the TGI [46] was over 50 µM and the TGI [47] was over 50 µM. The TGI [48] was over 50 µM, the TGI [58] was over 50 µM and the TGI [49] was over 50 µM. The TGI [50] was over 50 µM, the TGI [51] was over 50 µM and the TGI [52] was over 50 µM. It also gave a TGI [53] of over 50 µM, a TGI [54] of over 50 µM and a TGI [56] of over 50 µM. It also gave a TGI [57] of over 50 µM.
